In US20060204449A1, “Nasal pharmaceutical composition of piribedil” (priority 2003, published 2006):

What was measured:
[1] = Kinetics, tolerance and bioavailability study in healthy volunteers (nasal administration); assay type: in vivo, humans; details: human, plasma, inhaled or intranasal, formulation of Example 1, deduced from the kinetics results, read-out: bioavailability of piribedil administered by the nasal route
Protocol: Kinetics, Tolerance and Bioavailability Study in Healthy Volunteers
A study was carried out in 24 healthy volunteers in order to assess the local tolerance of the pharmaceutical composition according to the invention and also the kinetics of the formulation.
This study was carried out using the formulation described in Example 1, administered with the aid of a metering pump which delivers 100 μl of solution on each spray. The doses of piribedil tested are as follows: 0.1 mg, 0.25 mg, 0.5 mg, 1 mg and 2 mg, administered using two sprays each of 100 μl.

[2] = humans; cited from earlier work

Question: With `c1cnc(N2CCN(Cc3ccc4c(c3)OCO4)CC2)nc1` [piribedil, Piribedil] as the molecule, how does the bioavailability [1] read?
Answer: 50 to 70%

Question: And the “bioavailability by the oral route in relation to the parenteral route” value [2]?
Answer: low
